Values quoted from earlier work, collected in patent publication EP1121935B1, “Pharmaceutical composition containing a small or medium size peptide” (Patents Exploitation Company B.V., priority 2000, dated 2001).

Key:
nasal ciliar motility = conditions: reported by Hofmann T. et al., 1998
[1] = solutions free from preservative; polystyrene, polypropylene and glass tubes; 24 hours at room temperature

loss of active principle because of the adsorption by the walls [1]	Substance	effect on nasal ciliar motility (nasal ciliar motility)
–	benzalkonium chloride	irreversible suppression of the nasal ciliar motility
about the half	1-(3-mercaptopropanoic acid)-8-D-argininevasopressin [desmopressin]	–
